Data taken from patent EP0866684B1, “COSMETIC HAIR TREATMENT METHOD” (UNILEVER PLC, priority 1995, dated 1997).
Read-outs that look alike come from different tables or passages of the source.

How the values were obtained:
[1] = tested on: isolated human hair follicles; test: Incorporation of radiolabelled cysteine into hair fibre in vitro (Example 2); type: cell-based; conditions: 5 hours with a range of cysteine concentrations, partly radiolabelled; 48 hours chase; liquid scintillation counting of the fibre
Procedure: Follicles were isolated as described in Example 1 and cultured for 5 hours in the presence of a range of concentrations of cysteine, a small proportion of which was radiolabelled. After 5 hours the follicles were transferred to normal supplemented Williams E medium to "chase" the radioactivity into the fibre being grown in the follicle, for 48 hours. The hair fibre was isolated from each follicle using a combination of detergent and enzyme and the 'naked' fibre dissolved and subjected to liquid scintillation counting.

[2] = tested on: isolated human hair follicles; test: Fibre diameter after change from lower to higher cysteine concentration (Example 5); type: cell-based
Procedure: Follicles were isolated as described in Example 1 and cultured as described in Example 3. Fibres were isolated and diameter measured as described in Example 4. […] The change in diameter was calculated by taking, firstly the diameter at the narrowest part of the fibre for each of the three treatments and secondly the diameter of the fibre during growth after addition of cysteine - deemed to be the in vitro diameter, and taking the ratio of these to the in vivo diameter.

sheep = conditions: cited from earlier work; for sulphur content of the "new" wool / wool growth: abomasal or intravenous infusion, sheep consuming roughage-based diets; for increase in fibre diameter: cysteine infusion, sheep wool
[3] = tested on: isolated human hair follicles; test: In vitro hair follicle growth test: growth at varied cysteine concentration (Example 1); type: cell-based; conditions: concentration of cysteine + cystine (half cystine) varied in supplemented Williams E medium
Procedure: The effect of cysteine on hair diameter was assessed using an in vitro test which uses isolated human hair follicles in a culture medium.
Human hair follicles were isolated from scalp skin by the methods described by Philpott et al J Cell Science 97 463-471, 1990. […] Follicles isolated in this way were cultured as described by Westgate et al Br. J. Dermatol 129 372-379, 1993 in a completely defined culture medium called Williams E medium (obtainable from ICN FLOW), the latter supplemented with antibiotics, glutamine, hydrocortisone and Insulin. In this example the concentration of cysteine + cystine (referred to as half cystine) was varied and the daily rate of growth of follicles measured.

[4] = tested on: isolated human hair follicles; test: Diameter of hair fibres grown in vitro, Laser Scan Micrometer (Example 4); type: cell-based; conditions: range of cysteine concentrations, 7-11 days of culture
Procedure: Follicles were isolated as described in Example 1 and placed into culture in supplemented Williams E medium containing a range of concentrations of cysteine. Following several days of culture(7-11), follicles were removed from the medium and the fibres isolated from the follicles as described above. The diameter of the fibres was measured using a modified Laser Scan Micrometer (Mitotoyu) coupled to a moving jig which was capable of rotating the fibre through 180° and moving the fibre through the laser beam at intervals of 0.2mm. Each isolated fibre contained a small part which was formally grown in vivo, the diameter of this "in vivo" end of the fibre. The diameter of the fibre grown in vitro was measured at intervals of 0.2mm along the fibre. For estimation of the effect of different media concentrations of cysteine on diameter, the average in vitro diameter was compared across the treatment concentrations of cysteine and the ratio of in vitro diameter to in vivo diameter was calculated.

[5] = tested on: isolated human hair follicles; test: Growth of follicles moved from lower to higher cysteine medium (Example 3); type: cell-based; conditions: 2 days in medium with lower cysteine, then moved to medium with a higher amount of cysteine
Procedure: Human hair follicles were isolated as described in Example 1 and placed into culture in Williams E medium formulated to contain a lower concentration of cysteine. Follicles were cultured for 2 days in this medium then transferred to medium containing a higher amount of cysteine.

Compound | Incorporation of cysteine into human hair in vitro [1] | diameter of the fibre ([2]; after transfer to the higher concentration of cysteine (495.0µM)) | change in diameter (ratio to the in vivo diameter) ([2]; follicles where the cysteine concentration was reversed) | diameter of the fibre ([2]; lower concentration of cysteine (9.0µM), compared with the in vivo diameter) | sulphur content of the "new" wool (sheep) | wool growth (sheep) | increase in fibre diameter (sheep; typical value) | increase in fibre diameter (sheep) | daily rate of growth of follicles [3] | diameter of the fibres [4] | growth rate [5]
N[C@@H](CS)C(=O)O [cysteine] | concentration dependent | increased again | the fibre diameter was similarly reversed | decreased from the in vivo diameter | increased | stimulates wool growth | 1-3 µm | 5-10% | growth increases with cysteine concentration in the medium | dependent on the concentration of cysteine available to the follicles | increasing their growth rate
CSCC[C@H](N)C(=O)O [methionine, reference compound] | – | – | – | – | increased | stimulates wool growth | – | – | – | – | –
